Reference: patent US20240165052A1 (priority 2021, published 2024)

How the values were obtained:
[1] = pH of phosphate buffer (donor medium) with (S)-ketamine HCl or OTF; format: physicochemical
[2] = at 20° C.; cited from earlier work
[3] = system: porcine mucosa (mucosa oesophagus); experiment: in vitro permeation of (S)-ketamine, Franz diffusion cell; settings: 37° C.

Structure (SMILES): CN[C@]1(c2ccccc2Cl)CCCCC1=O.Cl [(S)-ketamine HCl]
- Buffer + (S)-ketamine HCl pH at 22° C. ([1]; acidic buffer (pH 4.99 at 22° C.)): 4.92
- Buffer + (S)-ketamine HCl pH at 22° C. ([1]; alkaline buffer (pH 8.33 at 22° C.)): 7.81
- Buffer + (S)-ketamine HCl pH at 22° C. ([1]; neutral buffer (pH 7.46 at 22° C.)): 6.64

Structure (SMILES): NC(CO)(CO)CO [TRIS, tris(hydroxymethyl)aminomethane]
- pKs [2]: 8.2

Structure (SMILES): CNC1(c2ccccc2Cl)CCCCC1=O (racemic) [(S)-ketamine, (S)-(±)-2-(2-chlorophenyl)-2-(methylamino)cyclohexan-1-one]
- permeation rate of S-ketamine ([3]; 2.77 mg (S)-ketamine HCl on mucosa, acidic buffer as donor, FIG. 1): lowest permeation rate
- permeation of S-ketamine ([3]; 2.77 mg (S)-ketamine HCl on mucosa, neutral buffer as donor, FIG. 1): best
- permeation rate of S-ketamine ([3]; 0.287 cm^2 OTF formulation 1 + 70 μL acidic buffer, FIG. 2): lowest permeation rate
- permeation of S-ketamine ([3]; 0.287 cm^2 OTF formulation 1 + 70 μL alkaline buffer, FIG. 2): best
